According to patent US20090234097A1, “VASODILATOR” (CALPIS CO., LTD., priority 2006, published 2009):

Test system: thoracic aorta ring of a Wistar rat
Experiment: Vasodilating test on phenylephrine-preconstricted aorta ring (Magnus apparatus)
Settings: at 10 mM (printed 10 mm); aorta ring preconstricted with 1 μM phenylephrine
Description: The thoracic aorta of a Wistar rat was taken out, cut into 2 mm long, and made into an aorta ring. The ring was set in a Magnus apparatus (product name “micro tissue organ bath MTB-1Z”, manufactured by LABO SUPPORT CO., LTD.), and allowed to equilibrate with a constant tension. The constriction response of the aorta ring was confirmed with 50 mM KCl.
Next, the aorta ring was preliminarily constricted with 1 μM phenylephrine, and VPP and IPP prepared in Synthesis Example were added at ten-fold increasing concentrations from 10^−9 M to observe the vasodilator response through the change in tension of the aorta ring. The dose dependency of the vasodilator response was also studied.
The vasodilating test was conducted in the same way as in Example 1, except that the tripeptides VPP and IPP were replaced with amino acids, valine (Val) and proline (Pro), at the same concentration.

SMILES	vasodilator response (change in tension of the aorta ring)
CC(C)[C@H](N)C(=O)O [Val, valine]	no vasodilator response was observed
O=C(O)[C@@H]1CCCN1 [Pro, proline]	no vasodilator response was observed
